Test results from DBAASP.
Values after ≈ are worked out from the molar mass of the structure shown. Values joined by “and” are separate entries in the source; they are usually repeats but may differ in a detail not shown here. Equal entries are not always repeated. One block for each compound: values may come before it.

Columns and labels:
Test in all cases: ≥ marks a high value that may be exact or a test limit, other limits are often not marked, values filed in µg/mL are converted to µM
[1] = tested on: Escherichia coli ATCC 25922
[2] = tested on: Staphylococcus aureus ATCC 25923
Bordetella pertussis = tested on: Bordetella pertussis
[3] = tested on: Pseudomonas aeruginosa A093052
[4] = tested on: Enterococcus faecalis ATCC 29212
[5] = tested on: Staphylococcus aureus ATCC 29213
Escherichia coli = tested on: Escherichia coli
Enterococcus faecalis = tested on: Enterococcus faecalis
Escherichia coli AB94012 = tested on: Escherichia coli AB94012
[6] = tested on: Acinetobacter baumannii ATCC 19606
[7] = tested on: Pseudomonas aeruginosa AB93066
[8] = tested on: Staphylococcus aureus NBRC 100910
[9] = tested on: Staphylococcus aureus P1383
[10] = tested on: Staphylococcus epidermidis P1389
[11] = tested on: Pseudomonas aeruginosa A093056
[12] = tested on: Escherichia coli ATCC 35218
[13] = tested on: Pseudomonas aeruginosa ATCC 27853
[14] = tested on: Pseudomonas aeruginosa A093085
Pseudomonas aeruginosa = tested on: Pseudomonas aeruginosa
[15] = tested on: Bacillus subtilis AB91021
[16] = tested on: Staphylococcus aureus P1369
Staphylococcus aureus = tested on: Staphylococcus aureus
[17] = tested on: Staphylococcus aureus P1374
[18] = tested on: Bacillus thuringiensis AB92037
Enterococcus faecium = tested on: Enterococcus faecium
[19] = tested on: Staphylococcus epidermidis
Klebsiella pneumoniae = tested on: Klebsiella pneumoniae
[20] = tested on: Micrococcus luteus AB93113
[21] = tested on: Klebsiella pneumoniae ATCC 700603
Acinetobacter baumannii = tested on: Acinetobacter baumannii
[22] = tested on: Pseudomonas aeruginosa A092994
[23] = tested on: Staphylococcus epidermidis P1111
[24] = tested on: Pseudomonas aeruginosa A093115
[25] = tested on: Staphylococcus aureus P1381
[26] = tested on: Staphylococcus aureus AB94004
[27] = tested on: Candida albicans NCTC 3179
[28] = tested on: Lactobacillus acidophilus NCTC 1723
[29] = tested on: Streptococcus mutans NCTC 10449
[30] = tested on: Enterococcus faecalis NCTC 12697
[31] = tested on: Stenotrophomonas maltophilia
[32] = tested on: Proteus mirabilis ATCC 25933
[33] = tested on: Staphylococcus epidermidis RP62A
[34] = tested on: Staphylococcus epidermidis RP62A/1
[35] = tested on: Escherichia coli ATCC 25726
[36] = tested on: Candida albicans ATCC 90028
[37] = tested on: Candida albicans F7-39/IDE99
Escherichia coli B = tested on: Escherichia coli B
Bacillus subtilis = tested on: Bacillus subtilis

SMILES: CSCC[C@H](NC(=O)[C@H](CC(C)C)NC(=O)CNC(=O)[C@@H](NC(=O)[C@H](Cc1ccccc1)NC(=O)[C@H](CO)NC(=O)[C@H](CC(=O)O)NC(=O)[C@@H](NC(=O)[C@H](CCCCN)NC(=O)[C@@H](N)Cc1cnc[nH]1)[C@@H](C)O)C(C)C)C(N)=O [HKTDSFVGLM]
MIC [13]: > 441 µM
MIC [27]: ≥ 441 µM
MIC [28]: ≥ 441 µM
MIC [1]: > 441 µM
MIC [2]: > 441 µM
MIC [29]: ≥ 441 µM
MIC [30]: ≥ 441 µM

SMILES: CC(C)C[C@@H]1NC(=O)[C@H](CCCCN)NC(=O)[C@H](CC(C)C)NC(=O)[C@@H]2CCCN2C(=O)CNC(=O)[C@H](CCCCN)NC(=O)[C@@H](NC(=O)[C@H](CCCCN)NC(=O)CNC(=O)[C@H](CCCCN)NC(=O)[C@H](CCCCN)NC(=O)[C@H](CCCCN)NC(=O)[C@H](C)N)CSSC[C@@H](C(N)=O)NC(=O)[C@H](CCCCN)NC(=O)[C@H](C)NC(=O)[C@H](C(C)C)NC1=O [AKKKGKCKGPLKLVAKC]
MIC [37]: ≥ 100 µM
MIC (Pseudomonas aeruginosa): > 100 µM
MIC (Escherichia coli B): ≥ 100 µM
MIC (Bacillus subtilis): ≥ 65 µM
MIC (Staphylococcus aureus): > 100 µM

Continued by falling MIC [2], values first:

MIC [1]: 22.1 µM (≈ 99.9 µg/mL)
MIC [2]: 17.7 µM (≈ 79.9 µg/mL)
MIC (Bordetella pertussis): 1.1 µM (≈ 4.99 µg/mL)
SMILES: CC[C@H](C)[C@@H]1NC(=O)[C@H](CCC(N)=O)NC(=O)[C@H](CCCCN)NC(=O)[C@H](CCSC)NC(=O)[C@H](CCCCN)NC(=O)[C@@H]2CCCN2C(=O)[C@H](C)NC(=O)[C@@H]2CSSC[C@@H](C(=O)N[C@@H](CCCCN)C(=O)N[C@@H](CCCN=C(N)N)C(=O)N[C@@H](CCCCN)C(=O)O)NC(=O)[C@@H]3CSSC[C@H](NC(=O)[C@H](CO)NC(=O)[C@@H](NC(=O)[C@H](CO)NC(=O)[C@H](CC(N)=O)NC(=O)CNC(=O)[C@@H](NC(=O)[C@H](CC(N)=O)NC(=O)[C@@H](N)CCCCN)[C@@H](C)CC)C(C)C)C(=O)N[C@@H](CC(C)C)C(=O)N[C@@H](CCCN=C(N)N)C(=O)N[C@@H](CC(N)=O)C(=O)N[C@@H](CCCCN)C(=O)NCC(=O)N[C@@H](C(C)C)C(=O)N[C@@H](CSSC[C@H](NC(=O)[C@H]([C@@H](C)O)NC(=O)CNC1=O)C(=O)NCC(=O)N[C@@H](CCSC)C(=O)N1CCC[C@H]1C(=O)N[C@@H](CCC(N)=O)C(=O)N[C@@H](C(C)C)C(=O)N[C@@H](CCCCN)C(=O)N3)C(=O)N[C@@H](CCSC)C(=O)N1CCC[C@H]1C(=O)NCC(=O)N[C@@H](CCCCN)C(=O)N2 [KNIGNSVSCLRNKGVCMPGKCAPKMKQIGTCGMPQVKCCKRK]

MIC [5]: 3.1 µM (≈ 9.54 µg/mL)
MIC [13]: 25 µM (≈ 76.9 µg/mL)
MIC [31]: 3.1 µM (≈ 9.54 µg/mL)
MIC [32]: ≥ 100 µM
MIC [33]: 1.6 µM (≈ 4.92 µg/mL)
MIC [2]: 3.1 µM (≈ 9.54 µg/mL)
MIC [21]: 12.5 µM (≈ 38.5 µg/mL)
MIC (Acinetobacter baumannii): 3.1 µM (≈ 9.54 µg/mL)
MIC [34]: 0.8 µM (≈ 2.46 µg/mL)
MIC [35]: 6.25 µM (≈ 19.2 µg/mL)
MIC [36]: ≥ 50 µM
SMILES: CC[C@H](C)[C@H](N)C(=O)N[C@@H](CCCCN)C(=O)N[C@@H](CC(C)C)C(=O)N[C@@H](CO)C(=O)N1CCC[C@H]1C(=O)N[C@@H](CCC(=O)O)C(=O)N[C@H](C(=O)N[C@@H](CCCCN)C(=O)N[C@@H](CCCCN)C(=O)N[C@@H](CC(N)=O)C(=O)N[C@@H](CC(C)C)C(=O)N[C@@H](CCCCN)C(=O)N[C@@H](CCCCN)C(=O)N[C@H](C(=O)N[C@@H](CC(C)C)C(=O)N[C@@H](CCCCN)C(=O)NCC(=O)N[C@@H](C)C(=O)N[C@H](C(=O)N[C@@H](CCCCN)C(=O)NCC(=O)N[C@@H](C)C(=O)N[C@H](C(=O)N[C@@H](C)C(=O)N[C@H](C(=O)N[C@@H](C)C(=O)N[C@@H](CCCCN)C(=O)N[C@@H](CCSC)C(=O)N[C@H](C(N)=O)C(C)C)C(C)C)[C@@H](C)CC)[C@@H](C)CC)C(C)C)[C@@H](C)O [IKLSPETKKNLKKVLKGAIKGAIAVAKMV]

MIC [3]: ≥ 59.7 µM
MIC [4]: 2.99 µM (≈ 5 µg/mL)
MIC [5]: 2.99 µM (≈ 5 µg/mL)
MIC (Escherichia coli): 8.45 µM (≈ 14.1 µg/mL)
MIC (Enterococcus faecalis): 5.97 µM (≈ 9.99 µg/mL)
MIC (Escherichia coli AB94012): 3.73 µM (≈ 6.25 µg/mL)
MIC [6]: 2.99 µM (≈ 5 µg/mL)
MIC [7]: 14.9 µM (≈ 25 µg/mL)
MIC [8]: 2.39 µM (≈ 4 µg/mL)
MIC [9]: 3.73 µM (≈ 6.25 µg/mL)
MIC [10]: 3.73 µM (≈ 6.25 µg/mL)
MIC [11]: 29.9 µM (≈ 50 µg/mL)
MIC [12]: 5.97 µM (≈ 9.99 µg/mL)
MIC [13]: 5.97 µM (≈ 9.99 µg/mL)
MIC [14]: 29.9 µM (≈ 50 µg/mL)
MIC (Pseudomonas aeruginosa): 8.45 µM (≈ 14.1 µg/mL)
MIC [15]: 3.73 µM (≈ 6.25 µg/mL)
MIC [16]: 1.87 µM (≈ 3.13 µg/mL)
MIC [1]: 14.9 µM and 5.97 µM
MIC (Staphylococcus aureus): 2.11 µM (≈ 3.53 µg/mL)
MIC [17]: 1.87 µM (≈ 3.13 µg/mL)
MIC [18]: 3.73 µM (≈ 6.25 µg/mL)
MIC (Enterococcus faecium): 2.99 µM (≈ 5 µg/mL)
MIC [2]: 1.87 µM (≈ 3.13 µg/mL)
MIC [19]: 2.11 µM (≈ 3.53 µg/mL)
MIC (Klebsiella pneumoniae): 5.97 µM (≈ 9.99 µg/mL)
MIC [20]: 3.73 µM (≈ 6.25 µg/mL)
MIC [21]: 5.97 µM (≈ 9.99 µg/mL)
MIC (Acinetobacter baumannii): 4.22 µM (≈ 7.07 µg/mL)
MIC [22]: 29.9 µM (≈ 50 µg/mL)
MIC [23]: 1.87 µM (≈ 3.13 µg/mL)
MIC [24]: ≥ 59.7 µM
MIC [25]: 3.73 µM (≈ 6.25 µg/mL)
MIC [26]: 1.87 µM (≈ 3.13 µg/mL)
SMILES: CC[C@H](C)[C@H](NC(=O)[C@H](CCCN=C(N)N)NC(=O)[C@H](CCCCN)NC(=O)[C@@H](NC(=O)[C@@H](N)Cc1ccccc1)[C@@H](C)CC)C(=O)N[C@@H](C)C(=O)N[C@@H](CCCN=C(N)N)C(=O)N[C@@H](CC(C)C)C(=O)N[C@@H](CC(C)C)C(=O)N[C@@H](CCCN=C(N)N)C(=O)N[C@@H](CCCCN)C(=O)N[C@H](C(=O)N[C@@H](Cc1ccccc1)C(N)=O)[C@@H](C)CC [FIKRIARLLRKIF]
